Laboratory results: PubChem BioAssay AID276 (DTP/NCI, 2004)
Where “and” joins values, the source holds several entries; their conditions need not be identical. Equal entries are not always repeated. Inconclusive results and toxic doses are left out. The calls were made as follows: active = survival T/C of 150% or more; inactive = T/C below 125% in these data.

Tested on: B6C3F1 mice, Lewis lung carcinoma iv, survival T/C
Assay: NCI In Vivo Anticancer Drug Screen. Data for tumor model Lewis Lung Carcinoma (intravenous) in B6C3F1 mice
Settings: endpoint: median survival time, schedule: Q01DX009 (ip), higher = longer survival
In short: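 T/C ratio derived from survival of compound-treated versus vehicle-treated mice bearing transplantable tumors.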

[1] = dose: 25.0 mg/kg/injection, vehicle: saline with Tween-80
[2] = dose: 50.0 mg/kg/injection, vehicle: saline with Tween-80
[3] = dose: 6.25 mg/kg/injection, vehicle: saline with Tween-80
[4] = dose: 12.5 mg/kg/injection, vehicle: saline with Tween-80
[5] = dose: 25.0 mg/kg/injection, vehicle: saline
[6] = dose: 50.0 mg/kg/injection, vehicle: saline
[7] = dose: 100.0 mg/kg/injection, vehicle: saline
[8] = dose: 12.5 mg/kg/injection, vehicle: saline
[9] = dose: 100.0 mg/kg/injection, vehicle: saline with Tween-80
[10] = dose: 6.25 mg/kg/injection, vehicle: saline

Measured: T/C

CCC12C[N+]3([O-])CCc4c([nH]c5ccccc45)C(C(=O)OC)(c4cc5c(cc4OC)N(C)C4C(O)(C(=O)OC)C(OC(C)=O)C6(CC)C=CCN7CCC54C76)CC(C3)C1O2 (configuration not stated)
inactive: dose: 0.62 mg/kg/injection, vehicle: water 93 % of control | dose: 1.25 mg/kg/injection, vehicle: water 94 % of control | dose: 2.5 mg/kg/injection, vehicle: water 97 % of control | dose: 5.0 mg/kg/injection, vehicle: water 95 % of control | dose: 10.0 mg/kg/injection, vehicle: water 98 % of control | dose: 20.0 mg/kg/injection, vehicle: water 101 % of control

CCOC(=O)c1[nH]c2cccc3c2c1CC(Br)C3=O (configuration not stated)
inactive: dose: 12.0 mg/kg/injection, vehicle: saline with Tween-80 102 % of control | [1] 100 % of control | [2] 99 % of control

ClC1=C(Cl)C(Cl)=C(Cl)C1=Cc1ccccc1
inactive: dose: 3.12 mg/kg/injection, vehicle: saline with Tween-80 94 % of control and 101 % of control | [3] 98 % of control and 108 % of control | [4] 98 % of control | [1] 97 % of control | [2] 105 % of control

Cc1ccccc1CN1C2=NCCN2C(=O)C2=C1CCN(S(=O)(=O)c1ccc(Cl)c(S(N)(=O)=O)c1)C2
inactive: dose: 12.0 mg/kg/injection, vehicle: saline 103 % of control | [5] 99 % of control | [6] 94 % of control | [7] 99 % of control and 101 % of control | dose: 200.0 mg/kg/injection, vehicle: saline 96 % of control and 102 % of control | dose: 400.0 mg/kg/injection, vehicle: saline 94 % of control and 98 % of control

CCC(C(=O)O)C(=O)O.[NH-]CC1CCCC[N-]1.[Pt+2]
inactive: [8] 105 % of control | dose: 12.5 mg/kg/injection, vehicle: suspension in saline 103 % of control | [5] 106 % of control | dose: 25.0 mg/kg/injection, vehicle: suspension in saline 104 % of control | [6] 113 % of control | dose: 50.0 mg/kg/injection, vehicle: suspension in saline 116 % of control | dose: 100.0 mg/kg/injection, vehicle: suspension in saline 123 % of control

Nc1nc(N)c2cc(S(=O)(=O)c3ccccc3)ccc2n1
inactive: [1] 98 % of control | [2] 98 % of control | [9] 99 % of control

CC1=C(C)C(=O)O[C@@H]([C@](C)(O)[C@]2(O)CC[C@@]3(O)[C@@H]4C[C@H]5O[C@]56[C@@H](O)C=CC(=O)[C@]6(C)[C@H]4CC[C@]23C)C1
inactive: dose: 1.0 mg/kg/injection, vehicle: saline 97 % of control | dose: 2.0 mg/kg/injection, vehicle: saline 100 % of control and 101 % of control | dose: 4.0 mg/kg/injection, vehicle: saline 101 % of control and 104 % of control | dose: 8.0 mg/kg/injection, vehicle: saline 94 % of control and 101 % of control | dose: 16.0 mg/kg/injection, vehicle: saline 94 % of control | dose: 32.0 mg/kg/injection, vehicle: saline 92 % of control

CSC(SC)=C1C(=O)NC(=O)NC1=O
inactive: dose: 3.12 mg/kg/injection, vehicle: saline 103 % of control | [10] 105 % of control | [8] 96 % of control | [5] 112 % of control

COC(=O)[C@@H]1c2cc3c(c(O)c2[C@@H](OC)C[C@@]1(C)O)C(=O)c1c(O)cc2c(c1C3=O)OC1O[C@@]2(C)[C@H](O)[C@@H](N(C)C)[C@@H]1O
inactive: dose: 1.56 mg/kg/injection, vehicle: saline 99 % of control | dose: 3.13 mg/kg/injection, vehicle: saline 112 % of control | [10] 101 % of control | [8] 97 % of control

CC1(C)COCN1COCCOCN1COCC1(C)C
inactive: [10] 103 % of control | [8] 108 % of control | [5] 97 % of control | [6] 104 % of control | [7] 107 % of control

C=C1C(=O)C2=CC1CCC(=O)C1(C)CCC(OC(C)=O)C(C)(C)C1CC2O (configuration not stated)
inactive: dose: 3.75 mg/kg/injection, vehicle: Klucel (hydroxypropylcellulose) (HPC) 93 % of control | dose: 7.5 mg/kg/injection, vehicle: Klucel (hydroxypropylcellulose) (HPC) 110 % of control | dose: 15.0 mg/kg/injection, vehicle: Klucel (hydroxypropylcellulose) (HPC) 98 % of control | dose: 30.0 mg/kg/injection, vehicle: Klucel (hydroxypropylcellulose) (HPC) 96 % of control | dose: 60.0 mg/kg/injection, vehicle: Klucel (hydroxypropylcellulose) (HPC) 100 % of control

COc1cccc2c1C(=O)c1c(O)c3c(c(O)c1C2=O)C[C@@](O)(C(=O)CO)C[C@@H]3OC1CC(N)C(O)C(C)O1 (some centres not stated)
inactive: dose: 0.12 mg/kg/injection, vehicle: saline 94 % of control and 96 % of control and 98 % of control | dose: 0.13 mg/kg/injection, vehicle: saline 102 % of control | dose: 0.5 mg/kg/injection, vehicle: water 95 % of control and 100 % of control | dose: 1.0 mg/kg/injection, vehicle: water 88 % of control | dose: 2.0 mg/kg/injection, vehicle: water 90 % of control and 123 % of control | dose: 4.0 mg/kg/injection, vehicle: water 112 % of control

CC(=O)NC(C=O)OCC=O (configuration not stated)
inactive: dose: 6.25 mg/kg/injection, vehicle: water 111 % of control | dose: 12.5 mg/kg/injection, vehicle: water 104 % of control | dose: 25.0 mg/kg/injection, vehicle: water 97 % of control | dose: 50.0 mg/kg/injection, vehicle: water 97 % of control | dose: 100.0 mg/kg/injection, vehicle: water 91 % of control | dose: 200.0 mg/kg/injection, vehicle: water 103 % of control

OCC(O)C(O)C(O)C(O)CO (configuration not stated)
inactive: dose: 75.0 mg/kg/injection, vehicle: saline 100 % of control | dose: 150.0 mg/kg/injection, vehicle: saline 96 % of control | dose: 300.0 mg/kg/injection, vehicle: saline 92 % of control | dose: 600.0 mg/kg/injection, vehicle: saline 95 % of control | dose: 1200.0 mg/kg/injection, vehicle: saline 98 % of control

CCC1OC(OC)C=CC1=O (configuration not stated)
inactive: [8] 97 % of control | [6] 97 % of control

O=C1CN(Cc2ccc3c(c2)OCO3)NO1
inactive: [3] 104 % of control and 109 % of control | [4] 106 % of control and 87 % of control | [1] 104 % of control and 123 % of control | [2] 104 % of control and 111 % of control | [9] 123 % of control and 86 % of control

C[Si](C)(CCl)N[Si](C)(C)CCl
inactive: [1] 104 % of control | [2] 99 % of control | [9] 107 % of control | dose: 400.0 mg/kg/injection, vehicle: saline with Tween-80 105 % of control
